We go through one compound from ChEMBL document CHEMBL1671675, “Population pharmacokinetics of ganciclovir after intravenous ganciclovir and oral valganciclovir administration in solid organ transplant patients infected with cytomegalovirus” (Antimicrob Agents Chemother, 2009).

The structures appear in SMILES notation.

The term bioavailability denotes dose-corrected exposure relative to a reference, in per cent.

In data set [1] the test system is Homo sapiens. Put plainly: Intercompartmental clearance between central and peripheral compartments in solid organ transplant patient exhibiting 57 L/hr creatinine clearance infected with cytomegalovirus at 5 mg/kg, iv bid for 5 days followed by 900 mg of oral valganciclovir dosed twice daily for 16 days dose adjustment for renal function by final population pharmacokinetic model. Type of data set: ADME, organism-based. The note with it: in vivo. Set-up: dose 5 mg/kg, route oral.

Data set [2] concerns Homo sapiens. Put plainly: Central volume of distribution in solid organ transplant patient exhibiting […] creatinine clearance infected with cytomegalovirus at 5 mg/kg, iv bid for 5 days followed by 900 mg of oral valganciclovir dosed twice daily for 16 days dose adjustment for renal function by final population pharmacokinetic model. Type of data set: ADME, organism-based. Set-up: dose 5 mg/kg, route oral. The note with it: in vivo.

Data set [3] in a line: Bioavailability in solid organ transplant patient exhibiting 57 mL/min creatinine clearance infected with cytomegalovirus at 5 mg/kg, iv bid for 5 days followed by 900 mg of oral valganciclovir dosed twice daily for 16 days dose adjustment for renal function by basal population pharmacokinetic model. The note with it: human, in vivo.
Data set [4] concerns Homo sapiens. The experiment in a line: Drug absorption in solid organ transplant patient exhibiting […] creatinine clearance infected with cytomegalovirus assessed as first-order absorption rate constant at 5 mg/kg, iv bid for 5 days followed by 900 mg of oral valganciclovir dosed twice daily for 16 days dose adjustment for renal function by basal population pharmacokinetic model. Type of data set: ADME, organism-based. Set-up: dose 5 mg/kg, route oral. The note with it: in vivo.

For data set [5], the system named is Homo sapiens. The experiment in a line: Central volume of distribution in solid organ transplant patient exhibiting […] creatinine clearance infected with cytomegalovirus at 5 mg/kg, iv bid for 5 days followed by 900 mg of oral valganciclovir dosed twice daily for 16 days dose adjustment for renal function by basal population pharmacokinetic model. Type of data set: ADME, organism-based. Further details: dose 5 mg/kg, route oral. The note with it: in vivo.

The test system of data set [6] is Homo sapiens. The experiment in a line: Clearance in solid organ transplant patient exhibiting […] creatinine clearance infected with cytomegalovirus at 5 mg/kg, iv bid for 5 days followed by 900 mg of oral valganciclovir dosed twice daily for 16 days dose adjustment for renal function by basal population pharmacokinetic model. Type of data set: ADME, organism-based. Further details: dose 5 mg/kg, route oral. The note with it: in vivo.

Data set [7] has as its system Homo sapiens. Put plainly: Drug absorption in solid organ transplant patient exhibiting […] creatinine clearance infected with cytomegalovirus assessed as first-order absorption rate constant at 5 mg/kg, iv bid for 5 days followed by 900 mg of oral valganciclovir dosed twice daily for 16 days dose adjustment for renal function. Type of data set: ADME, organism-based. Set-up: dose 5 mg/kg, route oral. The note with it: in vivo.

Data set [8] deals with Homo sapiens. The experiment in a line: Intercompartmental clearance between central and peripheral compartments in solid organ transplant patient exhibiting 57 L/hr creatinine clearance infected with cytomegalovirus at 5 mg/kg, iv bid for 5 days followed by 900 mg of oral valganciclovir dosed twice daily for 16 days dose adjustment for renal function by basal population pharmacokinetic model. Type of data set: ADME, organism-based. Further details: dose 5 mg/kg, route oral. The note with it: in vivo.

Data set [9] in a line: Bioavailability in solid organ transplant patient exhibiting […] creatinine clearance infected with cytomegalovirus at 5 mg/kg, iv bid for 5 days followed by 900 mg of oral valganciclovir dosed twice daily for 16 days dose adjustment for renal function by final population pharmacokinetic model. It counts as ADME, organism-based. The note with it: human, in vivo.
The test system of data set [10] is Homo sapiens. Put plainly: Clearance in solid organ transplant patient exhibiting […] creatinine clearance infected with cytomegalovirus at 5 mg/kg, iv bid for 5 days followed by 900 mg of oral valganciclovir dosed twice daily for 16 days dose adjustment for renal function by final population pharmacokinetic model. It counts as ADME, organism-based. Further details: dose 5 mg/kg, route oral. The note with it: in vivo.

`Nc1nc(O)c2ncn(COC(CO)CO)c2n1` [GANCICLOVIR]: the CL turned out to be 10.2 L/h in the data set with Homo sapiens [1], 6.34 L/h in the data set on Homo sapiens [6], 9.65 L/h with Homo sapiens [8] and 7.49 L/h with Homo sapiens [10]. Besides, the Vd was determined as 31.9 L in the data set on Homo sapiens [2] and 32 L in the data set on Homo sapiens [5]. The bioavailability in [3] was found to be 76%; in [9] it was 82.5%. For the same compound, the Ka with Homo sapiens [4] was found to be 0.971 h⁻¹; in the data set with Homo sapiens [7], 0.895 h⁻¹.
